Test results from PubChem BioAssay AID328 (DTP/NCI, 2004).
Where “and” joins values, the source holds several entries; their conditions need not be identical. Equal entries are not always repeated. Inconclusive results and toxic doses are left out. The calls were made as follows: active = survival T/C of 150% or more; inactive = T/C below 125% in these data.

System: BDF1 mice, P388 leukemia ip, median survival T/C
Test: NCI In Vivo Anticancer Drug Screen. Data for tumor model P388 Leukemia (intraperitoneal) in B6D2F1 (BDF1) mice
Details: endpoint: median survival time, higher = longer survival
Procedure, shortened: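 Mice carrying the transplantable tumour receive compound or vehicle. Survival is followed in each arm, and the treated measure is divided by the vehicle measure.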

[1] = dose: 12.5 mg/kg/injection, schedule: Q01DX009 (ip), vehicle: water
[2] = dose: 12.5 mg/kg/injection, schedule: Q04DX003 (ip), vehicle: saline with Tween-80
[3] = dose: 25.0 mg/kg/injection, schedule: Q01DX009 (ip), vehicle: water
[4] = dose: 25.0 mg/kg/injection, schedule: Q04DX003 (ip), vehicle: saline with Tween-80
[5] = dose: 50.0 mg/kg/injection, schedule: Q04DX003 (ip), vehicle: saline with Tween-80
[6] = dose: 50.0 mg/kg/injection, schedule: Q01DX009 (ip), vehicle: other
[7] = dose: 100.0 mg/kg/injection, schedule: Q01DX009 (ip), vehicle: other
[8] = dose: 25.0 mg/kg/injection, schedule: Q01DX009 (ip), vehicle: saline
[9] = dose: 50.0 mg/kg/injection, schedule: Q04DX003 (ip), vehicle: saline
[10] = dose: 100.0 mg/kg/injection, schedule: Q04DX003 (ip), vehicle: saline
[11] = dose: 12.5 mg/kg/injection, schedule: Q01DX009 (ip), vehicle: saline with Tween-80
[12] = dose: 25.0 mg/kg/injection, schedule: Q01DX009 (ip), vehicle: saline with Tween-80
[13] = dose: 50.0 mg/kg/injection, schedule: Q01DX009 (ip), vehicle: saline with Tween-80
[14] = dose: 100.0 mg/kg/injection, schedule: Q01DX009 (ip), vehicle: saline with Tween-80
[15] = dose: 200.0 mg/kg/injection, schedule: Q01DX009 (ip), vehicle: saline with Tween-80
[16] = dose: 100.0 mg/kg/injection, schedule: Q04DX003 (ip), vehicle: saline with Tween-80
[17] = dose: 200.0 mg/kg/injection, schedule: Q04DX003 (ip), vehicle: saline with Tween-80
[18] = dose: 400.0 mg/kg/injection, schedule: Q01DX009 (ip), vehicle: saline with Tween-80
[19] = dose: 400.0 mg/kg/injection, schedule: Q04DX003 (ip), vehicle: saline with Tween-80
[20] = dose: 100.0 mg/kg/injection, schedule: Q01DX001 (ip), vehicle: saline with Tween-80
[21] = dose: 200.0 mg/kg/injection, schedule: Q01DX001 (ip), vehicle: saline with Tween-80
[22] = dose: 400.0 mg/kg/injection, schedule: Q01DX001 (ip), vehicle: saline with Tween-80

Measured: T/C

C=CC[N+](CC=C)(CC=C)CC[N+](CC=C)(CC=C)CC=C
inactive: [1] 102 % of control | [2] 104 % of control | [3] 105 % of control | [4] 104 % of control | dose: 50.0 mg/kg/injection, schedule: Q01DX009 (ip), vehicle: water 115 % of control | [5] 101 % of control

O=C(O)C(CCO)C(=O)C(F)(F)F (stereo unspecified)
inactive: dose: 25.0 mg/kg/injection, schedule: Q01DX009 (ip), vehicle: other 98 % of control | [6] 98 % of control | [7] 91 % of control

CC[n+]1ccc2cc(OC)c(OC)cc2c1Cc1ccc(OC)c(OC)c1
inactive: [8] 109 % of control | dose: 50.0 mg/kg/injection, schedule: Q01DX009 (ip), vehicle: saline 118 % of control | [9] 90 % of control | [10] 104 % of control

O=[N+]([O-])c1ccc2nccc(Cl)c2c1
inactive: dose: 25.0 mg/kg/injection, schedule: Q04DX003 (ip), vehicle: Klucel (hydroxypropylcellulose) (HPC) 100 % of control | dose: 50.0 mg/kg/injection, schedule: Q04DX003 (ip), vehicle: Klucel (hydroxypropylcellulose) (HPC) 95 % of control

Cc1cccc(NC(=O)c2ccccc2)n1
inactive: [11] 91 % of control | [12] 91 % of control | [13] 104 % of control

FC(F)(F)c1cccc(C(c2ccccc2)(c2ccccc2)n2cncn2)c1
inactive: [13] 114 % of control | [14] 109 % of control | [15] 100 % of control

O/N=C(\c1ccccc1)c1ccccn1
inactive: [11] 96 % of control | [12] 90 % of control | [13] 96 % of control

O=N[O-].O=N[O-].[NH-]CC[NH-].[Pt+2]
inactive: dose: 25.0 mg/kg/injection, schedule: Q04DX003 (ip), vehicle: saline 95 % of control | [9] 108 % of control | dose: 100.0 mg/kg/injection, schedule: Q01DX009 (ip), vehicle: saline 90 % of control | [10] 95 % of control

COc1ccc2nc3c(Cl)c(Cl)c(=O)c(Cl)c-3sc2c1
inactive: dose: 12.5 mg/kg/injection, schedule: Q01DX005 (ip), vehicle: saline with Tween-80 102 % of control | dose: 25.0 mg/kg/injection, schedule: Q01DX005 (ip), vehicle: saline with Tween-80 88 % of control

C(=C\c1nc2ncccn2n1)/c1ccccc1
inactive: [13] 101 % of control | [14] 87 % of control | [15] 100 % of control

COc1ccc(OC)c(Br)c1
inactive: [14] 110 % of control | [16] 100 % of control | dose: 178.0 mg/kg/injection, schedule: Q01DX009 (ip), vehicle: saline with Tween-80 118 % of control | [15] 120 % of control | [17] 100 % of control | dose: 266.0 mg/kg/injection, schedule: Q01DX009 (ip), vehicle: saline with Tween-80 118 % of control | [18] 109 % of control | [19] 113 % of control

CN(C)S(=O)(=O)c1ccccc1C(O)(c1ccccc1)c1ccccc1
inactive: [16] 99 % of control | [17] 116 % of control | [19] 91 % of control

NCCNCC[OH2+].NCCNCC[OH2+].O=S(=O)([O-])[O-].[Cu+2]
inactive: dose: 6.25 mg/kg/injection, schedule: Q01DX009 (ip), vehicle: saline 105 % of control | dose: 12.5 mg/kg/injection, schedule: Q01DX009 (ip), vehicle: saline 108 % of control | [8] 103 % of control

CCCCCCCCCCCCNC
inactive: [2] 104 % of control | [4] 109 % of control | [5] 100 % of control

O=C(O)CC1(c2cccc3ccccc23)OC(=O)c2ccccc21 (stereo unspecified)
inactive: [20] 112 % of control | [21] 88 % of control | [22] 97 % of control

CCCn1c(C)nc2cc(C(F)(F)F)cc(N)c21
inactive: [16] 103 % of control | [17] 92 % of control | [19] 97 % of control

C=C1C=C(C)CC(C)(C)C1 (tested in a mixture with another compound)
inactive: dose: 100.0 mg/kg/injection, schedule: Q01DX009 (ip), vehicle: saline sonified 100 % of control | dose: 200.0 mg/kg/injection, schedule: Q01DX009 (ip), vehicle: saline sonified 100 % of control | dose: 400.0 mg/kg/injection, schedule: Q01DX009 (ip), vehicle: saline sonified 100 % of control

CC(=O)OCC(OC(C)=O)C(OC(C)=O)C(OC(C)=O)C(/C=N/NC(N)=S)=N/NC(N)=S (stereo unspecified)
inactive: [6] 90 % of control | [7] 100 % of control | dose: 100.0 mg/kg/injection, schedule: Q04DX003 (ip), vehicle: other 95 % of control | dose: 200.0 mg/kg/injection, schedule: Q01DX009 (ip), vehicle: other 100 % of control | dose: 200.0 mg/kg/injection, schedule: Q04DX003 (ip), vehicle: other 105 % of control | dose: 400.0 mg/kg/injection, schedule: Q04DX003 (ip), vehicle: other 120 % of control

S=C1SC(c2ccccc2)(c2ccccc2)c2ccccc21
inactive: [20] 100 % of control | [21] 94 % of control | [22] 93 % of control

NC(N)=Nc1ccc(OC(=O)c2ccc(N=C(N)N)cc2)cc1
inactive: dose: 1.56 mg/kg/injection, schedule: Q01DX009 (ip), vehicle: water 106 % of control | dose: 3.12 mg/kg/injection, schedule: Q01DX009 (ip), vehicle: water 94 % of control | dose: 6.25 mg/kg/injection, schedule: Q01DX009 (ip), vehicle: water 103 % of control | [1] 110 % of control | [3] 103 % of control

CC(/C=N/N=C(N)N)=N\N=C(N)N
inactive: dose: 40.0 mg/kg/injection, schedule: Q01DX009 (ip), vehicle: water 86 % of control | dose: 60.0 mg/kg/injection, schedule: Q01DX010 (ip), vehicle: water 88 % of control

CN=Cc1ccc([N+](=O)[O-])cc1
inactive: dose: 100.0 mg/kg/injection, schedule: Q01DX001 (ip), vehicle: Klucel (hydroxypropylcellulose) (HPC) 113 % of control | dose: 200.0 mg/kg/injection, schedule: Q01DX001 (ip), vehicle: Klucel (hydroxypropylcellulose) (HPC) 104 % of control

O=C(Nc1ccc([N+](=O)[O-])cc1)Nc1ccc([N+](=O)[O-])c(C(F)(F)F)c1
inactive: [14] 87 % of control | dose: 110.0 mg/kg/injection, schedule: Q01DX009 (ip), vehicle: Klucel (hydroxypropylcellulose) (HPC) 105 % of control and 117 % of control | dose: 170.0 mg/kg/injection, schedule: Q01DX009 (ip), vehicle: Klucel (hydroxypropylcellulose) (HPC) 121 % of control | [15] 95 % of control | dose: 225.0 mg/kg/injection, schedule: Q01DX009 (ip), vehicle: Klucel (hydroxypropylcellulose) (HPC) 105 % of control | [18] 100 % of control

CC(C(=O)O)S(=O)(=O)c1ccccc1 (stereo unspecified)
inactive: dose: 100.0 mg/kg/injection, schedule: Q04DX002 (ip), vehicle: saline with Tween-80 93 % of control | dose: 200.0 mg/kg/injection, schedule: Q04DX002 (ip), vehicle: saline with Tween-80 102 % of control

COC(=O)C(Br)C(Br)N1C(=O)c2ccccc2C1=O (stereo unspecified)
inactive: dose: 100.0 mg/kg/injection, schedule: Q01DX009 (ip), vehicle: Klucel (hydroxypropylcellulose) (HPC) 100 % of control | dose: 100.0 mg/kg/injection, schedule: Q04DX003 (ip), vehicle: Klucel (hydroxypropylcellulose) (HPC) 104 % of control | dose: 200.0 mg/kg/injection, schedule: Q01DX009 (ip), vehicle: Klucel (hydroxypropylcellulose) (HPC) 104 % of control | dose: 200.0 mg/kg/injection, schedule: Q04DX003 (ip), vehicle: Klucel (hydroxypropylcellulose) (HPC) 100 % of control | dose: 400.0 mg/kg/injection, schedule: Q01DX009 (ip), vehicle: Klucel (hydroxypropylcellulose) (HPC) 108 % of control | dose: 400.0 mg/kg/injection, schedule: Q04DX003 (ip), vehicle: Klucel (hydroxypropylcellulose) (HPC) 109 % of control
